Counter-ions that a name gives are not always drawn.
The compounds below were run against T1, recombinant human GSK3β (Homo sapiens, UniProt P49841) (assay: GSK3β Scintillation Proximity Assay (ATP competition)). Conditions: inhibition constants calculated with Km of ATP for GSK3β of 20 μM; 1 μM ATP, 1 μM biotinylated peptide substrate.
T1 construct: purchased Dundee University, UK
Format: biochemical
Experimental: Determination of ATP Competition in Scintillation Proximity GSK3β Assay.
GSK3β Scintillation Proximity Assay.
The competition experiments were carried out in duplicate with 10 different concentrations of the inhibitors in clear-bottom microtiter plates (Wallac, Finland). A biotinylated peptide substrate, Biotin-Ala-Ala-Glu-Glu-Leu-Asp-Ser-Arg-Ala-Gly-Ser(PO3H2)-Pro-Gln-Leu (AstraZeneca, Lund), was added at a final concentration of 1 μM in an assay buffer containing 1 mU recombinant human GSK3β (Dundee University, UK), 12 mM morpholinepropanesulfonic acid (MOPS), pH 7.0, 0.3 mM EDTA, 0.01% β-mercaptoethanol, 0.004% Brij 35 (a […] detergent), 0.5% glycerol and 0.5 μg BSA/25 μl. The reaction was initiated by the addition of 0.04 μCi [γ-^33P]ATP (Amersham, UK) and unlabelled ATP at a final concentration of 1 μM and assay volume of 25 μl. After incubation for 20 minutes at room temperature, each reaction was terminated by the addition of 25 μl stop solution containing 5 mM EDTA, 50 μM ATP, 0.1% Triton X-100 and 0.25 mg streptavidin coated Scintillation Proximity Assay (SPA) beads (Amersham, UK). After 6 hours the radioactivity was determined in a liquid scintillation counter (1450 MicroBeta Trilux, Wallac). The inhibition curves were analysed by non-linear regression using GraphPad Prism, USA. The Km value of ATP for GSK3β, used to calculate the inhibition constants (Ki) of the various compounds, was 20 μM.

T1 sequence (P49841 whole entry): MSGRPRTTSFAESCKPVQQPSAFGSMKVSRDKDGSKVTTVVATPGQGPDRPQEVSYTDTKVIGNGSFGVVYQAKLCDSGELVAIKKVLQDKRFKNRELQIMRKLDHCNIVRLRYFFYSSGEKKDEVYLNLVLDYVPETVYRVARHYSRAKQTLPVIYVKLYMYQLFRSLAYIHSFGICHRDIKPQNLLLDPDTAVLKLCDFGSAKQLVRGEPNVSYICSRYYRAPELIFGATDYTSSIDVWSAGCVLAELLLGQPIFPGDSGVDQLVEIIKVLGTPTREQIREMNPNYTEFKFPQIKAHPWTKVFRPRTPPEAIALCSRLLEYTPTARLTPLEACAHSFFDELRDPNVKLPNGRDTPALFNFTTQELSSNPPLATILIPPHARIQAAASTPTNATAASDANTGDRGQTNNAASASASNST

Ki [nM]	Compound
468	Cc1ncc(-c2nc(Nc3ccc(S(C)(=O)=O)cn3)ncc2F)n1C1CCOCC1 [Example 1, 5-Fluoro-N-[5-(methylsulfonyl)pyridin-2-yl]-4-[2-methyl-1-(tetrahydro-2H-pyran-4-yl)-1H-imidazol-5-yl]pyrimidin-2-amine hydrochloride]
40	Cc1ncc(-c2nc(Nc3ccc(S(C)(=O)=O)nc3)ncc2F)n1C1CCOCC1 [Example 2, 5-Fluoro-N-[6-(methylsulfonyl)pyridin-3-yl]-4-[2-methyl-1-(tetrahydro-2H-pyran-4-yl)-1H-imidazol-5-yl]pyrimidin-2-amine]
661	Cc1ncc(-c2nc(Nc3ccc(C(=O)N4CCN(C)CC4)cn3)ncc2F)n1C1CCOCC1 [Example 3, 5-Fluoro-N-{5-[(4-methylpiperazin-1-yl)carbonyl]pyridin-2-yl}-4-[2-methyl-1-(tetrahydro-2H-pyran-4-yl)-1H-imidazol-5-yl]pyrimidin-2-amine]
63	Cc1ncc(-c2nc(Nc3ccc(C(=O)N4CCN(C)CC4)nc3)ncc2F)n1C1CCOCC1 [Example 4, 5-Fluoro-N-{6-[(4-methylpiperazin-1-yl)carbonyl]pyridin-3-yl}-4-[2-methyl-1-(tetrahydro-2H-pyran-4-yl)-1H-imidazol-5-yl]pyrimidin-2-amine]
70	Cc1ncc(-c2nc(Nc3ccc(C(=O)N4CCC4)nc3)ncc2F)n1C1CCOCC1 [Example 5, N-[6-(Azetidin-1-ylcarbonyl)pyridin-3-yl]-5-fluoro-4-[2-methyl-1-(tetrahydro-2H-pyran-4-yl)-1H-imidazol-5-yl]pyrimidin-2-amine]
45	CCOc1ccc(Nc2ncc(F)c(-c3cnc(C)n3C3CCOCC3)n2)cn1 [Example 10, (6-Ethoxy-pyridin-3-yl)-{5-fluoro-4-[2-methyl-3-(tetrahydro-pyran-4-yl)-3H-imidazol-4-yl]-pyrimidin-2-yl}-amine]
60	COc1ncc(Nc2ncc(F)c(-c3cnc(C)n3C3CCOCC3)n2)cn1 [Example 11, {5-Fluoro-4-[2-methyl-3-(tetrahydro-pyran-4-yl)-3H-imidazol-4-yl]-pyrimidin-2-yl}-(2-methoxy-pyrimidin-5-yl)-amine]
29	CCCN(C(=O)c1ccc(Nc2ncc(F)c(-c3cnc(C)n3C3CCOCC3)n2)cn1)C(C)CC (centres unmarked) [Example 12, N-Butan-2-yl-5-[[5-fluoro-4-[2-methyl-3-(oxan-4-yl)imidazol-4-yl]pyrimidin-2-yl]amino]-N-propyl-pyridine-2-carboxamide]
34	Cc1ncc(-c2nc(Nc3ccc(C(=O)N4CCC(F)(F)C4)nc3)ncc2F)n1C1CCOCC1 [Example 13, (3,3-Difluoropyrrolidin-1-yl)-[5-[[5-fluoro-4-[2-methyl-3-(oxan-4-yl)imidazol-4-yl]pyrimidin-2-yl]amino]pyridin-2-yl]methanone]
16	Cc1ncc(-c2nc(Nc3ccc(C(=O)N4CCCC(C)C4)nc3)ncc2F)n1C1CCOCC1 (centres unmarked) [Example 14, [5-[[5-Fluoro-4-[2-methyl-3-(oxan-4-yl)imidazol-4-yl]pyrimidin-2-yl]amino]pyridin-2-yl]-(3-methyl-1-piperidyl)methanone]
43	Cc1ncc(-c2nc(Nc3ccc(C(=O)N(C)C(C)C)nc3)ncc2F)n1C1CCOCC1 [Example 15, 5-[[5-Fluoro-4-[2-methyl-3-(oxan-4-yl)imidazol-4-yl]pyrimidin-2-yl]amino]-N-methyl-N-propan-2-yl-pyridine-2-carboxamide]
9	Cc1ncc(-c2nc(Nc3ccc(C(=O)N4CCC(c5ccc(F)cc5)CC4)nc3)ncc2F)n1C1CCOCC1 [Example 16, [5-[[5-Fluoro-4-[2-methyl-3-(oxan-4-yl)imidazol-4-yl]pyrimidin-2-yl]amino]pyridin-2-yl]-[4-(4-fluorophenyl)-1-piperidyl]methanone]
50	CCN1CCN(C(=O)c2ccc(Nc3ncc(F)c(-c4cnc(C)n4C4CCOCC4)n3)cn2)CC1 [Example 17, (4-Ethylpiperazin-1-yl)-[5-[[5-fluoro-4-[2-methyl-3-(oxan-4-yl)imidazol-4-yl]pyrimidin-2-yl]amino]pyridin-2-yl]methanone]
47	CCCCN1CCN(C(=O)c2ccc(Nc3ncc(F)c(-c4cnc(C)n4C4CCOCC4)n3)cn2)CC1 [Example 18, (4-Butylpiperazin-1-yl)-[5-[[5-fluoro-4-[2-methyl-3-(oxan-4-yl)imidazol-4-yl]pyrimidin-2-yl]amino]pyridin-2-yl]methanone]
25	CCN(C(=O)c1ccc(Nc2ncc(F)c(-c3cnc(C)n3C3CCOCC3)n2)cn1)C(C)C [Example 19, N-Ethyl-5-[[5-fluoro-4-[2-methyl-3-(oxan-4-yl)imidazol-4-yl]pyrimidin-2-yl]amino]-N-propan-2-yl-pyridine-2-carboxamide]
26	Cc1ncc(-c2nc(Nc3ccc(C(=O)N4CCCCC4)nc3)ncc2F)n1C1CCOCC1 [Example 20, [5-[[5-Fluoro-4-[2-methyl-3-(oxan-4-yl)imidazol-4-yl]pyrimidin-2-yl]amino]pyridin-2-yl]-(1-piperidyl)methanone]
90	Cc1ncc(-c2nc(Nc3ccc(C(=O)N4CCN(C(C)C)CC4)nc3)ncc2F)n1C1CCOCC1 [Example 21, [5-[[5-Fluoro-4-[2-methyl-3-(oxan-4-yl)imidazol-4-yl]pyrimidin-2-yl]amino]pyridin-2-yl]-(4-propan-2-ylpiperazin-1-yl)methanone]
67	Cc1ncc(-c2nc(Nc3ccc(C(=O)N(C(C)C)C(C)C)nc3)ncc2F)n1C1CCOCC1 [Example 22, 5-[[5-Fluoro-4-[2-methyl-3-(oxan-4-yl)imidazol-4-yl]pyrimidin-2-yl]amino]-N,N-dipropan-2-yl-pyridine-2-carboxamide]
41	Cc1ncc(-c2nc(Nc3ccc(C(=O)N4C(C)CCCC4C)nc3)ncc2F)n1C1CCOCC1 (centres unmarked) [Example 23, (2,6-Dimethyl-1-piperidyl)-[5-[[5-fluoro-4-[2-methyl-3-(oxan-4-yl)imidazol-4-yl]pyrimidin-2-yl]amino]pyridin-2-yl]methanone]
24	CCCN(CCC)C(=O)c1ccc(Nc2ncc(F)c(-c3cnc(C)n3C3CCOCC3)n2)cn1 [Example 24, 5-[[5-Fluoro-4-[2-methyl-3-(oxan-4-yl)imidazol-4-yl]pyrimidin-2-yl]amino]-N,N-dipropyl-pyridine-2-carboxamide]
28	COC1CCN(C(=O)c2ccc(Nc3ncc(F)c(-c4cnc(C)n4C4CCOCC4)n3)cn2)CC1 [Example 25, [5-[[5-Fluoro-4-[2-methyl-3-(oxan-4-yl)imidazol-4-yl]pyrimidin-2-yl]amino]pyridin-2-yl]-(4-methoxy-1-piperidyl)methanone]
31	CCN(C)C(=O)c1ccc(Nc2ncc(F)c(-c3cnc(C)n3C3CCOCC3)n2)cn1 [Example 26, N-Ethyl-5-[[5-fluoro-4-[2-methyl-3-(oxan-4-yl)imidazol-4-yl]pyrimidin-2-yl]amino]-N-methyl-pyridine-2-carboxamide]
28	Cc1ncc(-c2nc(Nc3ccc(C(=O)N4CCC(C)CC4)nc3)ncc2F)n1C1CCOCC1 [Example 27, [5-[[5-Fluoro-4-[2-methyl-3-(oxan-4-yl)imidazol-4-yl]pyrimidin-2-yl]amino]pyridin-2-yl]-(4-methyl-1-piperidyl)methanone]
